Results as given in patent US8835458B2 (Hanmi Science Co., Ltd, priority 2010, dated 2014).
Counter-ions that a name gives are not always drawn. Like-named read-outs stand apart in the source and are kept apart here.

Tests used:
[1] = Toxicity to normal cells (SRB); assay type: cell-based, mouse; conditions: mouse, Balb/c3t3 fibroblasts (normal cell line), read-out: BalB/C (GI50)
Procedure: MDA-MB-231 breast cancer cell lines (ATCC #HTB-26) and BxPC-3 pancreas cancer cell lines (ATCC #CRL 1687), which have been reported to express XIAP, were obtained from ATCC (American type culture collection; Rockville, Md.). MDA-MB-231 cell lines were incubated in L-15 medium supplemented with 10% FBS and 1% penicillin/streptomycin (Gibco BRL) at a T-75 cm^2 growth flask. In addition, BxPC-3 cell lines were incubated in RPMI medium supplemented with 10% FBS and 1% penicillin/streptomycin. For experiments of toxicity to normal cells, fibroblasts Hs27 (ATCC #CRL 1634) and Balb/c3t3 (ATCC #CCL 163) were used. The various cell lines were transferred into 96-well plates at a density of 3,000˜5,000 cells/100 μL, and cultured for 24 hours under conditions of 37° C., 5% CO2, 95% air, and 100% relative humidity (MDA-MB-231 cells were cultured under atmospheric conditions). The cells were treated with 10 μM˜0.1 nM of test compounds, and MDA-MB-231, BxPC-3, and normal cell lines were cultured for 120, 96, and 72 hours, respectively.
Cell viabilities of MDA-MB-231 cell lines were measured at an absorbance of 490 nm using CellTiter 96™ AQueous One Solution Cell proliferation Assay (MTS, Promega), and cell viabilities of BxPC-3 and normal cell lines were measured by fixing cells with 10% TCA (trichloroacetic acid), staining with SRB (sulforhodamine B), and measuring at 540 nm. From the values, GI50 values in which test compounds reduce the growth of cancer cells by 50% were calculated. The growth rates of cancer cells were calculated from following Equation 1 or 2. [(Ti−Tz)/(C−Tz)]×100 (for Ti>=Tz) [Equation 1] [(Ti−Tz)/Tz]×100 (for Ti<Tz) [Equation 2] In Equations 1 and 2, Tz refers to a density of untreated cells, which is an absorbance in 0% cell growth groups. C refers to a density of cells cultured by adding only medium, and Ti refers to a density of cells treated with test compounds.
GI50 value is the concentration of a test compound when the value of Equation 1 is 50, which indicates the concentration of test compound required to inhibit the cancer cells by 50%. On each measurement, test compounds were compared with a control.
The activity value of each compound (GI50 value) was shown in Table 5, and an IAP antagonist was used as a control.
In the activity measurement on MDA-MB-231 breast cancer cell lines, the values were represented as “***” for 100 nM or less, “**” for over 100 nM to below 1,000 nM, and “*” for 1,000 nM or more. In the measurement on normal cell lines, Balb/C and Hs27, the values were represented as “+++” for 10,000 nM or more, “++” for over 5,000 nM to below 10,000 nM, and “+” for 5,000 nM or less.

[2] = Toxicity to normal cells (SRB); assay type: cell-based, human; conditions: human, Hs27 fibroblasts (normal cell line)
Outline: (§1)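 GI50 values come from growth equations comparing treated, untreated and medium-only wells. Fibroblasts (Hs27, Balb/c3t3) got 72 h compound exposure with SRB read-out at 540 nm after TCA fixing. MDA-MB-231 got 120 h with MTS at 490 nm, across 10 μM˜0.1 nM.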

[3] = system: MDA-MB-231 breast cancer cell lines; test: Evaluation of inhibition on cell growth (MTS); assay type: cell-based; conditions: Homo sapiens, MDA-MB-231, 120 hours
Outline: as §1

GI50 [3]	Compound	GI50 at 72 h [1]	GI50 at 72 h [2]
≤ 0.1 µM	CN[C@@H](C)C(=O)N[C@H](C(=O)N1CCC[C@H]1C(=O)Nc1cc2c(Nc3ccc4ncccc4c3)ncnc2cc1OC)C(C)(C)C [Example 53, (S)-1-((S)-3,3-dimethyl-2-((S)-2-(methylamino)propanamido)butanoyl)-N-(7-methoxy-4-(quinoline-6-ylamino)quinazolin-6-yl)pyrrolidine-2-carboxamide]	> 10 µM	> 10 µM
≤ 0.1 µM	CN[C@@H](C)C(=O)N[C@H](C(=O)N1CCC[C@H]1C(=O)Nc1cc2c(Nc3ccc4[nH]ncc4c3)ncnc2cc1OC)C(C)(C)C [Example 54, (S)—N-(4-(1H-indazol-5-ylamino)-7-methoxyquinazolin-6-yl)-1-((S)-3,3-dimethyl-2-((S)-2-(methylamino)propanamido)butanoyl)pyrrolidine-2-carboxamide]	> 10 µM	> 10 µM
≤ 0.1 µM	CN[C@@H](C)C(=O)N[C@H](C(=O)N1CCC[C@H]1C(=O)Nc1cc2c(Nc3ccc(F)cc3)ncnc2cc1OC)C(C)(C)C [Example 55, (S)-1-((S)-3,3-dimethyl-2-((S)-2-(methylamino)propanamido)butanoyl)-N-(4-(4-fluorophenylamino)-7-methoxyquinazolin-6-yl)pyrrolidine-2-carboxamide]	> 10 µM	> 10 µM
≤ 0.1 µM	CN[C@@H](C)C(=O)N[C@H](C(=O)N1CCC[C@H]1C(=O)Nc1cc2c(Nc3ccc(Cl)cc3)ncnc2cc1OC)C(C)(C)C [Example 56, (S)—N-(4-(4-chlorophenylamino)-7-methoxyquinazolin-6-yl)-1-((S)-3,3-dimethyl-2-((S)-2-(methylamino)propanamido)butanoyl)pyrrolidine-2-carboxamide]	> 10 µM	> 10 µM
≤ 0.1 µM	CN[C@@H](C)C(=O)N[C@H](C(=O)N1CCC[C@H]1C(=O)Nc1cc2c(Nc3cccc(OC)c3)ncnc2cc1OC)C(C)(C)C [Example 57, (S)-1-((S)-3,3-dimethyl-2-((S)-2-(methylamino)propanamido)butanoyl)-N-(7-methoxy-4-(3-methoxyphenylamino)quinazolin-6-yl)pyrrolidine-2-carboxamide hydrochloride]	> 10 µM	> 10 µM

Further lines, the compound ahead of its results:

Compound	GI50 [3]	GI50 at 72 h [1]	GI50 at 72 h [2]
CN[C@@H](C)C(=O)N[C@H](C(=O)N1CCC[C@H]1C(=O)Nc1cc2c(Nc3cccc(F)c3F)ncnc2cc1OC)C(C)(C)C [Example 42, (S)—N-(4-(2,3-difluorophenylamino)-7-methoxyquinazolin-6-yl)-1-((S)-3,3-dimethyl-2-((S)-2-(methylamino)propanamido)butanoyl)pyrrolidine-2-carboxamide hydrochloride]	≤ 0.1 µM	> 10 µM	> 10 µM
CN[C@@H](C)C(=O)N[C@H](C(=O)N1CCC[C@H]1C(=O)Nc1cc2c(Nc3ccc(F)c(Cl)c3F)ncnc2cc1O)C(C)(C)C [Example 43, (S)—N-(4-(3-chloro-2,4-difluorophenylamino)-7-hydroxyquinazolin-6-yl)-1-((S)-3,3-dimethyl-2-((S)-2-(methylamino)propanamido)butanoyl)pyrrolidine-2-carboxamide]	≤ 0.1 µM	> 10 µM	> 10 µM
C#CCO[C@H](C)[C@H](NC(=O)[C@H](C)NC)C(=O)N1CCC[C@H]1C(=O)Nc1cc2c(Nc3ccc(F)c(Cl)c3F)ncnc2cc1OC [Example 45, (S)—N-(4-(3-chloro-2,4-difluorophenylamino)-7-methoxyquinazolin-6-yl)-1-((2S,3R)-2-((S)-2-(methylamino)propanamido)-3-(prop-2-ynyloxy)butanoyl)pyrrolidine-2-carboxamide hydrochloride]	≤ 0.1 µM	> 10 µM	> 10 µM
CN[C@@H](C)C(=O)N[C@H](C(=O)N1C[C@H](OCc2ccccc2)C[C@H]1C(=O)Nc1cc2c(Nc3ccc(F)c(Cl)c3F)ncnc2cc1OC)C(C)(C)C [Example 46, (2S,4R)-4-(benzyloxy)-N-(4-(3-chloro-2,4-difluorophenylamino)-7-methoxyquinazolin-6-yl)-1-((S)-3,3-dimethyl-2-((S)-2-(methylamino)propanamido)butanoyl)pyrrolidine-2-carboxamide hydrochloride]	≤ 0.1 µM	> 10 µM	> 10 µM
CN[C@@H](C)C(=O)N[C@H](C(=O)N1CCC[C@H]1C(=O)Nc1cc2c(Nc3ccccc3N3CCOCC3)ncnc2cc1OC)C(C)(C)C [Example 47, (S)-1-((S)-3,3-dimethyl-2-((S)-2-(methylamino)propanamido)butanoyl)-N-(7-methoxy-4-(2-morpholinophenylamino)quinazolin-6-yl)pyrrolidine-2-carboxamide]	≤ 0.1 µM	> 10 µM	> 10 µM
CN[C@@H](C)C(=O)N[C@H](C(=O)N1CCC[C@H]1C(=O)Nc1ccc2ncnc(Nc3ccc(F)c(Cl)c3F)c2c1)C(C)(C)C [Example 48, (S)—N-(4-(3-chloro-2,4-difluorophenylamino)quinazolin-6-yl)-1-((S)-3,3-dimethyl-2-((S)-2-(methylamino)propanamido)butanoyl)pyrrolidine-2-carboxamide]	≤ 0.1 µM	> 10 µM	> 10 µM
CN[C@@H](C)C(=O)N[C@H](C(=O)N1CCC[C@H]1C(=O)Nc1cc2c(Nc3ccc(OC)cc3)ncnc2cc1OC)C(C)(C)C [Example 49, (S)-1-((S)-3,3-dimethyl-2-((S)-2-(methylamino)propanamido)butanoyl)-N-(7-methoxy-4-(4-methoxyphenylamino)quinazolin-6-yl)pyrrolidine-2-carboxamide hydrochloride]	≤ 0.1 µM	> 10 µM	> 10 µM
CN[C@@H](C)C(=O)N[C@H](C(=O)N1CCC[C@H]1C(=O)Nc1cc2c(N3CCCc4ccccc43)ncnc2cc1OC)C(C)(C)C [Example 50, (S)—N-(4-(3,4-dihydroquinoline-1(2H)-yl)-7-methoxyquinazolin-6-yl)-1-((S)-3,3-dimethyl-2-((S)-2-(methylamino)propanamido)butanoyl)pyrrolidine-2-carboxamide hydrochloride]	≤ 0.1 µM	> 10 µM	> 10 µM
CN[C@@H](C)C(=O)N[C@H](C(=O)N1CCC[C@H]1C(=O)Nc1cc2c(Nc3c(Cl)ccc4c3OCO4)ncnc2cc1OC)C(C)(C)C [Example 51, (S)—N-(4-(5-chlorobenzo[d][1,3]dioxol-4-ylamino)-7-methoxyquinazolin-6-yl)-1-((S)-3,3-dimethyl-2-((S)-2-(methylamino)propanamido)butanoyl)pyrrolidine-2-carboxamide hydrochloride]	≤ 0.1 µM	> 10 µM	> 10 µM
CN[C@@H](C)C(=O)N[C@H](C(=O)N1CCC[C@H]1C(=O)Nc1cc2c(Nc3ccc4c(c3)CCC4)ncnc2cc1OC)C(C)(C)C [Example 52, (S)—N-(4-(2,3-dihydro-1H-inden-5-ylamino)-7-methoxyquinazolin-6-yl)-1-((S)-3,3-dimethyl-2-((S)-2-(methylamino)propanamido)butanoyl)pyrrolidine-2-carboxamide hydrochloride]	≤ 0.1 µM	> 10 µM	> 10 µM
